Source: PubChem BioAssay AID290 (DTP/NCI, 2004)
“And” between values parts separate entries of the source, which are not always exact repeats. Identical values can stand only once. Results filed as inconclusive are left out.

Test system: mice, P1798 lymphosarcoma sc, survival or tumor weight T/C
Assay: NCI In Vivo Anticancer Drug Screen. Data for tumor model P1798 Lymphosarcoma (subcutaneous) in unknown mice
Experimental: The antitumor activity of compounds was measured in mice bearing transplantable tumors. Survival or tumor size were measured and the results are expressed as the measurement made in the treated group (T) divided by the measurement made in the vehicle treated control group (C). The tumor model used in this assay is P1798 Lymphosarcoma (subcutaneous) in unknown mice

[1] = endpoint: mean tumor weight, dose: 31.0 mg/kg/injection, schedule: Q01DX010 (ip), vehicle: carboxymethylcellulose (CMC), higher = larger tumour

C[C@]12C=CC(=O)C=C1CC[C@@H]1[C@@H]2[C@@H](O)C[C@@]2(C)[C@H]1CC[C@]2(O)C(=O)CO
T/C (endpoint: mean tumor weight, dose: 31.3 mg/kg/injection, schedule: Q01DX010 (sc), vehicle: steriod suspending solution, higher = larger tumour): 22 % of control | T/C (endpoint: mean tumor weight, dose: 62.5 mg/kg/injection, schedule: Q01DX010 (sc), vehicle: steriod suspending solution, higher = larger tumour): 8 % of control

O=C(Nc1ccc(C2=NCCN2)cc1)c1ccc(C(=O)Nc2ccc(C3=NCCN3)cc2)c(Cl)c1
T/C (endpoint: mean tumor weight, dose: 12.5 mg/kg/injection, schedule: Q01DX010 (ip), vehicle: water, higher = larger tumour): 70 % of control | T/C (endpoint: mean tumor weight, dose: 14.0 mg/kg/injection, schedule: Q01DX011 (ip), vehicle: carboxymethylcellulose (CMC), higher = larger tumour): 7 % of control | T/C (endpoint: mean tumor weight, dose: 28.0 mg/kg/injection, schedule: Q01DX001 (ip), vehicle: carboxymethylcellulose (CMC), higher = larger tumour): 80 % of control | T/C (endpoint: mean tumor weight, dose: 55.0 mg/kg/injection, schedule: Q01DX001 (ip), vehicle: carboxymethylcellulose (CMC), higher = larger tumour): 33 % of control

COc1cccc2c1C(=O)c1c(O)c3c(c(O)c1C2=O)C[C@@](O)(C(=O)CO)C[C@@H]3OC1CC(N)C(O)C(C)O1 (some centres not stated)
T/C (endpoint: median survival time, dose: 0.25 mg/kg/injection, schedule: Q01DX010 (ip), vehicle: water, higher = longer survival): 84 % of control | T/C (endpoint: median survival time, dose: 0.5 mg/kg/injection, schedule: Q01DX010 (ip), vehicle: water, higher = longer survival): 102 % of control | T/C (endpoint: median survival time, dose: 1.0 mg/kg/injection, schedule: Q01DX010 (ip), vehicle: water, higher = longer survival): 93 % of control | T/C (endpoint: median survival time, dose: 1.0 mg/kg/injection, schedule: Q04DX007 (ip), vehicle: water, higher = longer survival): 108 % of control | T/C (endpoint: median survival time, dose: 2.0 mg/kg/injection, schedule: Q01DX010 (ip), vehicle: water, higher = longer survival): 36 % of control | T/C (endpoint: median survival time, dose: 2.0 mg/kg/injection, schedule: Q04DX007 (ip), vehicle: water, higher = longer survival): 107 % of control | T/C (endpoint: median survival time, dose: 4.0 mg/kg/injection, schedule: Q01DX010 (ip), vehicle: water, higher = longer survival): 28 % of control

CN(C)c1nc(N(C)C)nc(N(C)C)n1
T/C (endpoint: mean tumor weight, dose: 62.5 mg/kg/injection, schedule: Q01DX010 (ip), vehicle: carboxymethylcellulose (CMC), higher = larger tumour): 119 % of control | T/C (endpoint: mean tumor weight, dose: 250.0 mg/kg/injection, schedule: Q01DX010 (ip), vehicle: carboxymethylcellulose (CMC), higher = larger tumour): 88 % of control | T/C (endpoint: mean tumor weight, dose: 500.0 mg/kg/injection, schedule: Q01DX010 (ip), vehicle: carboxymethylcellulose (CMC), higher = larger tumour): 106 % of control

CCN(CC)CCNc1ccc(C)c2sc3ccccc3c(=O)c12
T/C (endpoint: mean tumor weight, dose: 3.1 mg/kg/injection, schedule: Q01DX010 (ip), vehicle: methylcellulose (MC), higher = larger tumour): 108 % of control | T/C (endpoint: mean tumor weight, dose: 5.0 mg/kg/injection, schedule: Q01DX010 (ip), vehicle: methylcellulose (MC), higher = larger tumour): 99 % of control | T/C (endpoint: mean tumor weight, dose: 10.0 mg/kg/injection, schedule: Q01DX010 (ip), vehicle: methylcellulose (MC), higher = larger tumour): 68 % of control | T/C (endpoint: mean tumor weight, dose: 20.0 mg/kg/injection, schedule: Q01DX010 (ip), vehicle: methylcellulose (MC), higher = larger tumour): 104 % of control

N#[N+]c1cnc([O-])[nH]c1=O
T/C (endpoint: mean tumor weight, dose: 5.0 mg/kg/injection, schedule: Q01DX010 (ip), vehicle: carboxymethylcellulose (CMC), higher = larger tumour): 105 % of control | T/C (endpoint: mean tumor weight, dose: 10.0 mg/kg/injection, schedule: Q01DX010 (ip), vehicle: carboxymethylcellulose (CMC), higher = larger tumour): 47 % of control

OCC1OC(n2cnc3c(=S)nc[nH]c32)C(O)C1O (configuration not stated)
T/C (endpoint: mean tumor weight, dose: 4.0 mg/kg/injection, schedule: Q01DX010 (ip), vehicle: carboxymethylcellulose (CMC), higher = larger tumour): 115 % of control | T/C (endpoint: mean tumor weight, dose: 8.0 mg/kg/injection, schedule: Q01DX010 (ip), vehicle: carboxymethylcellulose (CMC), higher = larger tumour): 67 % of control | T/C (endpoint: mean tumor weight, dose: 16.0 mg/kg/injection, schedule: Q01DX010 (ip), vehicle: carboxymethylcellulose (CMC), higher = larger tumour): 45 % of control | T/C [1]: 82 % of control

CS(=O)(=O)OCCCl
T/C (endpoint: mean tumor weight, dose: 25.0 mg/kg/injection, schedule: Q01DX010 (ip), vehicle: carboxymethylcellulose (CMC), higher = larger tumour): 89 % of control | T/C (endpoint: mean tumor weight, dose: 50.0 mg/kg/injection, schedule: Q01DX010 (ip), vehicle: carboxymethylcellulose (CMC), higher = larger tumour): 88 % of control

COC1=C(N)C(=O)c2nc(-c3nc(C(=O)O)c(C)c(-c4ccc(OC)c(OC)c4O)c3N)ccc2C1=O
T/C (endpoint: mean tumor weight, dose: 0.05 mg/kg/injection, schedule: Q01DX010 (ip), vehicle: other, higher = larger tumour): 65 % of control | T/C (endpoint: mean tumor weight, dose: 0.1 mg/kg/injection, schedule: Q01DX010 (ip), vehicle: other, higher = larger tumour): 39 % of control

CCn1cnc2c(=S)nc[nH]c21
T/C (endpoint: mean tumor weight, dose: 7.75 mg/kg/injection, schedule: Q01DX010 (ip), vehicle: carboxymethylcellulose (CMC), higher = larger tumour): 117 % of control | T/C (endpoint: mean tumor weight, dose: 15.5 mg/kg/injection, schedule: Q01DX010 (ip), vehicle: carboxymethylcellulose (CMC), higher = larger tumour): 95 % of control | T/C [1]: 82 % of control

Nc1ncnc2c1ncn2C1OC(CO)CC1O (configuration not stated)
T/C (endpoint: mean tumor weight, dose: 37.5 mg/kg/injection, schedule: Q01DX010 (ip), vehicle: carboxymethylcellulose (CMC), higher = larger tumour): 111 % of control | T/C (endpoint: mean tumor weight, dose: 75.0 mg/kg/injection, schedule: Q01DX010 (ip), vehicle: carboxymethylcellulose (CMC), higher = larger tumour): 85 % of control

O=P1(N(CCCl)CCCl)NCCCO1 (configuration not stated)
T/C (endpoint: mean tumor weight, dose: 6.3 mg/kg/injection, schedule: Q01DX010 (ip), vehicle: saline, higher = larger tumour): 113 % of control and 107 % of control | T/C (endpoint: mean tumor weight, dose: 13.0 mg/kg/injection, schedule: Q01DX011 (ip), vehicle: saline, higher = larger tumour): 86 % of control | T/C (endpoint: mean tumor weight, dose: 26.5 mg/kg/injection, schedule: Q01DX011 (ip), vehicle: saline, higher = larger tumour): 121 % of control | T/C (endpoint: mean tumor weight, dose: 40.0 mg/kg/injection, schedule: Q01DX011 (ip), vehicle: saline, higher = larger tumour): 26 % of control | T/C (endpoint: median survival time, dose: 3.12 mg/kg/injection, schedule: Q01DX010 (ip), vehicle: saline, higher = longer survival): 80 % of control | T/C (endpoint: median survival time, dose: 6.25 mg/kg/injection, schedule: Q01DX010 (ip), vehicle: saline, higher = longer survival): 97 % of control | T/C (endpoint: median survival time, dose: 6.3 mg/kg/injection, schedule: Q07DX005 (ip), vehicle: saline, higher = longer survival): 99 % of control | T/C (endpoint: median survival time, dose: 12.5 mg/kg/injection, schedule: Q01DX001 (ip), vehicle: saline, higher = longer survival): 107 % of control | T/C (endpoint: median survival time, dose: 12.5 mg/kg/injection, schedule: Q01DX010 (ip), vehicle: saline, higher = longer survival): 96 % of control and 103 % of control (2×) | T/C (endpoint: median survival time, dose: 12.5 mg/kg/injection, schedule: Q07DX005 (ip), vehicle: saline, higher = longer survival): 106 % of control | T/C (endpoint: median survival time, dose: 25.0 mg/kg/injection, schedule: Q01DX001 (ip), vehicle: saline, higher = longer survival): 92 % of control (2×) and 101 % of control | T/C (endpoint: median survival time, dose: 25.0 mg/kg/injection, schedule: Q01DX010 (ip), vehicle: saline, higher = longer survival): 46 % of control and 98 % of control (2×) | T/C (endpoint: median survival time, dose: 25.0 mg/kg/injection, schedule: Q07DX005 (ip), vehicle: saline, higher = longer survival): 103 % of control | T/C (endpoint: median survival time, dose: 50.0 mg/kg/injection, schedule: Q01DX001 (ip), vehicle: saline, higher = longer survival): 97 % of control and 99 % of control (2×) | T/C (endpoint: median survival time, dose: 50.0 mg/kg/injection, schedule: Q01DX010 (ip), vehicle: saline, higher = longer survival): 29 % of control and 90 % of control (2×) | T/C (endpoint: median survival time, dose: 50.0 mg/kg/injection, schedule: Q07DX005 (ip), vehicle: saline, higher = longer survival): 110 % of control | T/C (endpoint: median survival time, dose: 100.0 mg/kg/injection, schedule: Q01DX001 (ip), vehicle: saline, higher = longer survival): 114 % of control and 100 % of control (2×) | T/C (endpoint: median survival time, dose: 100.0 mg/kg/injection, schedule: Q01DX010 (ip), vehicle: saline, higher = longer survival): 29 % of control | T/C (endpoint: median survival time, dose: 100.0 mg/kg/injection, schedule: Q07DX005 (ip), vehicle: saline, higher = longer survival): 95 % of control | T/C (endpoint: median survival time, dose: 200.0 mg/kg/injection, schedule: Q01DX001 (ip), vehicle: saline, higher = longer survival): 107 % of control | T/C (endpoint: median survival time, dose: 200.0 mg/kg/injection, schedule: Q01DX010 (ip), vehicle: saline, higher = longer survival): 25 % of control | T/C (endpoint: median survival time, dose: 400.0 mg/kg/injection, schedule: Q01DX001 (ip), vehicle: saline, higher = longer survival): 29 % of control

S=P(N1CCOCC1)(N1CC1)N1CC1
T/C (endpoint: mean tumor weight, dose: 6.25 mg/kg/injection, schedule: Q01DX010 (ip), vehicle: carboxymethylcellulose (CMC), higher = larger tumour): 82 % of control | T/C (endpoint: mean tumor weight, dose: 12.5 mg/kg/injection, schedule: Q01DX010 (ip), vehicle: carboxymethylcellulose (CMC), higher = larger tumour): 60 % of control

C1CN1c1nc(N2CC2)nc(N2CC2)n1
T/C (endpoint: mean tumor weight, dose: 0.06 mg/kg/injection, schedule: Q01DX010 (ip), vehicle: saline, higher = larger tumour): 77 % of control and 78 % of control | T/C (endpoint: mean tumor weight, dose: 0.12 mg/kg/injection, schedule: Q01DX010 (ip), vehicle: saline, higher = larger tumour): 78 % of control and 86 % of control | T/C (endpoint: mean tumor weight, dose: 0.25 mg/kg/injection, schedule: Q01DX010 (ip), vehicle: saline, higher = larger tumour): 44 % of control and 54 % of control

CC(=O)[C@@]1(O)CC[C@H]2[C@@H]3C[C@H](C)C4=CC(=O)C=C[C@]4(C)[C@@]3(F)[C@@H](O)C[C@@]21C
T/C (endpoint: mean tumor weight, dose: 8.0 mg/kg/injection, schedule: Q01DX010 (sc), vehicle: steriod suspending solution, higher = larger tumour): 37 % of control | T/C (endpoint: mean tumor weight, dose: 16.0 mg/kg/injection, schedule: Q01DX010 (sc), vehicle: steriod suspending solution, higher = larger tumour): 18 % of control

CC(=O)Nc1ccc2nc3ccc(NC(C)=O)cc3[n+](-c3ccccc3)c2c1
T/C (endpoint: mean tumor weight, dose: 25.0 mg/kg/injection, schedule: Q01DX010 (ip), vehicle: saline, higher = larger tumour): 56 % of control | T/C (endpoint: mean tumor weight, dose: 50.0 mg/kg/injection, schedule: Q01DX010 (ip), vehicle: saline, higher = larger tumour): 21 % of control | T/C (endpoint: mean tumor weight, dose: 100.0 mg/kg/injection, schedule: Q01DX010 (ip), vehicle: saline, higher = larger tumour): 12 % of control | T/C (endpoint: mean tumor weight, dose: 200.0 mg/kg/injection, schedule: Q01DX010 (ip), vehicle: saline, higher = larger tumour): 3 % of control

COc1ccc(-c2c(CC(=O)O)c3cc(OC)ccc3n2Cc2ccc(Cl)cc2)cc1
T/C (endpoint: mean tumor weight, dose: 125.0 mg/kg/injection, schedule: Q01DX010 (ip), vehicle: saline, higher = larger tumour): 105 % of control | T/C (endpoint: mean tumor weight, dose: 250.0 mg/kg/injection, schedule: Q01DX010 (ip), vehicle: saline, higher = larger tumour): 108 % of control | T/C (endpoint: mean tumor weight, dose: 500.0 mg/kg/injection, schedule: Q01DX010 (ip), vehicle: saline, higher = larger tumour): 112 % of control | T/C (endpoint: mean tumor weight, dose: 1000.0 mg/kg/injection, schedule: Q01DX010 (ip), vehicle: saline, higher = larger tumour): 110 % of control
